According to US7709507B2 (Allergan, Inc., priority 2006, dated 2010):

Tests used:
Format in all cases: cell-based
alpha2A receptor = target: T1, alpha2A receptor (Homo sapiens, UniProt P08913); assay: Receptor Selection and Amplification Technology (RSAT) assay, Alpha 2A; settings: RSAT, transfected NIH-3T3 cells with Gq/i5; not active = at concentrations less than 10 micromolar
T1 construct: expressed in transfected cells; host or cells: NIH-3T3 cells
T1 sequence (P08913 1-465): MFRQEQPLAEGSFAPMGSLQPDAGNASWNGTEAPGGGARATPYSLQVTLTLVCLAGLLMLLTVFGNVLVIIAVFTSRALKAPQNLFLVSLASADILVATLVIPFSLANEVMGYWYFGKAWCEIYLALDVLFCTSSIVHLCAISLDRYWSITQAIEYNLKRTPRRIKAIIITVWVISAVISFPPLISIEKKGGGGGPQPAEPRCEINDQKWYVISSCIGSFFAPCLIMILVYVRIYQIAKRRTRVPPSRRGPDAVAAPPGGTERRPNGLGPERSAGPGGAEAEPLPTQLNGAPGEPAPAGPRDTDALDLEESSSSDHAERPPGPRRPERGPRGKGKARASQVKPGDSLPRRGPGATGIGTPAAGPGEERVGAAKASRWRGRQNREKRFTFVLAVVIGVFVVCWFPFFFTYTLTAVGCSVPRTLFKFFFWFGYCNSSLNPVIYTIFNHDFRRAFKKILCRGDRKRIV
Experimental: (§1) Receptor Selection and Amplification Technology (RSAT) Assay
(§2) The RSAT assay measures a receptor-mediated loss of contact inhibition that results in selective proliferation of receptor-containing cells in a mixed population of confluent cells. The increase in cell number is assessed with an appropriate transfected marker gene such as β-galactosidase, the activity of which can be easily measured in a 96-well format. Receptors that activate the G protein, Gq, elicit this response. Alpha2 receptors, which normally couple to Gi, activate the RSAT response when coexpressed with a hybrid Gq protein that has a Gi receptor recognition domain, called Gq/i5.
(§3) NIH-3T3 cells are plated at a density of 2×10^6 cells in 15 cm dishes and maintained in Dulbecco's modified Eagle's medium supplemented with 10% calf serum. One day later, cells are cotransfected by calcium phosphate precipitation with mammalian expression plasmids encoding p-SV-β-galactosidase (5-10 μg), receptor (1-2 μg) and G protein (1-2 μg). 40 μg salmon sperm DNA may also be included in the transfection mixture. […] Cells are thawed and 100 μl added to 100 μl aliquots of various concentrations of drugs in triplicate in 96-well dishes. Incubations continue 72-96 hr at 37° C. After washing with phosphate-buffered saline, β-galactosidase enzyme activity is determined by adding 200 μl of the chromogenic substrate (consisting of 3.5 mM o-nitrophenyl-β-D-galactopyranoside and 0.5% nonidet P-40 in phosphate buffered saline), incubating overnight at 30° C. and measuring optical density at 420 nm. The absorbance is a measure of enzyme activity, which depends on cell number and reflects a receptor-mediated cell proliferation. The efficacy or intrinsic activity is calculated as a ratio of the maximal effect of the drug to the maximal effect of a standard full agonist for each receptor subtype. Brimonidine, also called UK14304, the chemical structure of which is shown below, is used as the standard agonist for the alpha2A, alpha2B and alpha2C receptors. The EC50 is the concentration at which the drug effect is half of its maximal effect.
(§4) EC50 values are nanomolar. NA stands for “not active” at concentrations less than 10 micromolar. IA stands for “intrinsic activity.”

alpha2B receptor = target: T2, alpha2B receptor (Homo sapiens, UniProt P18089); assay: Receptor Selection and Amplification Technology (RSAT) assay, Alpha 2B; settings: for EC50: RSAT, transfected NIH-3T3 cells with Gq/i5, not active = at concentrations less than 10 micromolar, read-out: Alpha 2B EC50; for Alpha 2B IA (intrinsic activity): ratio of maximal effect to that of standard full agonist brimonidine (UK14304)
T2 construct: expressed in transfected cells; host or cells: NIH-3T3 cells
T2 sequence (P18089 1-450): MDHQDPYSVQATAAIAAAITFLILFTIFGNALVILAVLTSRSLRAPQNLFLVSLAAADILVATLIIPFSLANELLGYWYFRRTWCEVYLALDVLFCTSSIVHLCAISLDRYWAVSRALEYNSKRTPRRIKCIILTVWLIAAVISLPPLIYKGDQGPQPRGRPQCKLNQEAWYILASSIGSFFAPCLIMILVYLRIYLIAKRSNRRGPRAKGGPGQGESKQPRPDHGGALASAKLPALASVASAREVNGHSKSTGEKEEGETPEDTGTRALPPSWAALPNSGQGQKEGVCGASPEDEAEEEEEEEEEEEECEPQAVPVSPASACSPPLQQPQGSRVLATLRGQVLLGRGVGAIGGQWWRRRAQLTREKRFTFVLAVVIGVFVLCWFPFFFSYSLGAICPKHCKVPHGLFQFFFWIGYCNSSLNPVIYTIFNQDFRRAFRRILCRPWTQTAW
Experimental: as §1, §2
NIH-3T3 cells are plated at a density of 2×10^6 cells in 15 cm dishes and maintained in Dulbecco's modified Eagle's medium supplemented with 10% calf serum. One day later, cells are cotransfected by calcium phosphate precipitation with mammalian expression plasmids encoding p-SV-β-galactosidase (5-10 μg), receptor (1-2 μg) and G protein (1-2 μg). 40 μg salmon sperm DNA may also be included in the transfection mixture. Fresh media is added on the following day and 1-2 days later, cells are harvested and frozen in 50 assay aliquots. Cells are thawed and 100 μl added to 100 μl aliquots of various concentrations of drugs in triplicate in 96-well dishes. Incubations continue 72-96 hr at 37° C. After washing with phosphate-buffered saline, β-galactosidase enzyme activity is determined by adding 200 μl of the chromogenic substrate (consisting of 3.5 mM o-nitrophenyl-β-D-galactopyranoside and 0.5% nonidet P-40 in phosphate buffered saline), incubating overnight at 30° C. and measuring optical density at 420 nm. The absorbance is a measure of enzyme activity, which depends on cell number and reflects a receptor-mediated cell proliferation. The efficacy or intrinsic activity is calculated as a ratio of the maximal effect of the drug to the maximal effect of a standard full agonist for each receptor subtype. Brimonidine, also called UK14304, the chemical structure of which is shown below, is used as the standard agonist for the alpha2A, alpha2B and alpha2C receptors. The EC50 is the concentration at which the drug effect is half of its maximal effect.
The results of the RSAT assay with several exemplary compounds of the invention are disclosed in Table 1 above together with the chemical formulas of these exemplary compounds. EC50 values are nanomolar. NA stands for “not active” at concentrations less than 10 micromolar. IA stands for “intrinsic activity.”

alpha2C receptor = target: T3, alpha2C receptor (Homo sapiens, UniProt P18825); assay: Receptor Selection and Amplification Technology (RSAT) assay, Alpha 2C; settings: RSAT, transfected NIH-3T3 cells with Gq/i5; not active = at concentrations less than 10 micromolar
T3 construct: expressed in transfected cells; host or cells: NIH-3T3 cells
T3 sequence (P18825 1-462): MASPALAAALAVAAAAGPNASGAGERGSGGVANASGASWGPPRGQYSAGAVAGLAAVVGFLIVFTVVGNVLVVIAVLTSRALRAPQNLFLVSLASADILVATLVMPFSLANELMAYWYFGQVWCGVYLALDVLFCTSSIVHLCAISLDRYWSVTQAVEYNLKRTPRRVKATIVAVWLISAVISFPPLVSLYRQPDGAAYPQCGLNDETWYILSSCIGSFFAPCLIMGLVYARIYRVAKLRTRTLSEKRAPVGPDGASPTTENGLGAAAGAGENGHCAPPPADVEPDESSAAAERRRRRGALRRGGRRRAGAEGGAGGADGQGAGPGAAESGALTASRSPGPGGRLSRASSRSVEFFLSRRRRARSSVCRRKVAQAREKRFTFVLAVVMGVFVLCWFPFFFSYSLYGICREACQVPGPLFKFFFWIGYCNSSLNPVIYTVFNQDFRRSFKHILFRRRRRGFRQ
Experimental: as §1, §2, §3, §4

Structure (SMILES) | Alpha 2A EC50 (alpha2A receptor) | EC50 (alpha2B receptor) | Alpha 2B IA (intrinsic activity) (alpha2B receptor) | Alpha 2C EC50 (alpha2C receptor)
Cc1cccc(C(Cc2cccc(F)c2F)NC(=O)NCCF)c1 (stereo not drawn) [1-[2-(2,3-difluoro-phenyl)-1-m-tolyl-ethyl]-3-(2-fluoro-ethyl)-urea] | not active | 20.5 nM | 1.02 | not active
Cc1cccc(C(Cc2cc(F)ccc2F)NC(=O)NCCF)c1 (stereo not drawn) [1-[2-(2,5-difluoro-phenyl)-1-m-tolyl-ethyl]-3-(2-fluoro-ethyl)-urea] | not active | 21.3 nM | 1.02 | not active
O=C(NCCF)NC(Cc1cc(F)ccc1F)c1cccnc1 (stereo not drawn) [1-[2-(2,5-difluoro-phenyl)-1-pyridin-3-yl-ethyl]-3-(2-fluoro-ethyl)-urea] | not active | 611 nM | 1.02 | not active
O=C(NCCF)NC(Cc1ccc(F)c(F)c1)c1ccncc1 (stereo not drawn) [1-[2-(3,4-difluoro-phenyl)-1-pyridin-4-yl-ethyl]-3-(2-fluoro-ethyl)-urea] | not active | 3620 nM | 0.44 | not active
O=C(NCCF)NC(Cc1cccc(F)c1)c1ccccc1 (stereo not drawn) [N-(2-fluoroethyl)-N′-[2-(3-fluorophenyl)-1-phenylethyl]urea] | not active | 26 nM | 0.95 | not active
Cc1cccc(C(Cc2ccccc2)NC(=O)NCCF)c1 (stereo not drawn) [drawing 72, 1-(2-fluoroethyl)-3-[1-(3-methylphenyl)-2-phenylethyl]urea] | not active | 29.8 nM | 0.91 | not active
